The supplement of paper PMC10307832

Assays:
Experiment in all cases: relative viability (nuclei count vs DMSO), 5 days (fraction); higher = more cells survive
Crenolanib + Alpelisib = compound: CC1(COc2ccc3c(c2)ncn3-c2ccc3cccc(N4CCC(N)CC4)c3n2)COC1 [Crenolanib] + Cc1nc(NC(=O)N2CCC[C@H]2C(N)=O)sc1-c1ccnc(C(C)(C)C(F)(F)F)c1 [Alpelisib] (partner 2 µM)
How it was run: (§1)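 Lung cancer cell lines, seeded in 1536-well plates, were treated the following day by pin tool with a single drug or with five library-drug doses (not always all listed) in √10 steps on top of a fixed anchor-drug dose. Cells were fixed and nuclei stained in one step after 5 days, and nuclei were counted. Relative viability is the nuclei count for treated wells divided by that for vehicle wells, reported as medians of duplicate plates.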

Tivantinib + Foretinib = compound: O=C1NC(=O)[C@@H](c2cn3c4c(cccc24)CCC3)[C@@H]1c1c[nH]c2ccccc12 [Tivantinib] + COc1cc2c(Oc3ccc(NC(=O)C4(C(=O)Nc5ccc(F)cc5)CC4)cc3F)ccnc2cc1OCCCN1CCOCC1 [Foretinib] (partner 0.25 µM)
How it was run: as §1

Crenolanib + Dasatinib = compound: CC1(COc2ccc3c(c2)ncn3-c2ccc3cccc(N4CCC(N)CC4)c3n2)COC1 [Crenolanib] + Cc1nc(Nc2ncc(C(=O)Nc3c(C)cccc3Cl)s2)cc(N2CCN(CCO)CC2)n1 [Dasatinib] (partner 0.075 µM)
How it was run: as §1

Tivantinib + Phenformin = compound: O=C1NC(=O)[C@@H](c2cn3c4c(cccc24)CCC3)[C@@H]1c1c[nH]c2ccccc12 [Tivantinib] + N=C(N)NC(=N)NCCc1ccccc1 [Phenformin] (partner 250 µM)
How it was run: as §1

| Cell Line | relative viability (Crenolanib + Alpelisib; first compound 0.01 µM) | relative viability (Crenolanib + Alpelisib; first compound 0.03162 µM) | relative viability (Crenolanib + Alpelisib; first compound 0.1 µM) | relative viability (Crenolanib + Alpelisib; first compound 0.3162 µM) | relative viability (Crenolanib + Alpelisib; first compound 1 µM) | relative viability (Tivantinib + Foretinib; first compound 0.01 µM) | relative viability (Tivantinib + Foretinib; first compound 0.03162 µM) | relative viability (Tivantinib + Foretinib; first compound 0.1 µM) | relative viability (Tivantinib + Foretinib; first compound 0.3162 µM) | relative viability (Crenolanib + Dasatinib; first compound 0.01 µM) | relative viability (Crenolanib + Dasatinib; first compound 0.03162 µM) | relative viability (Crenolanib + Dasatinib; first compound 0.1 µM) | relative viability (Crenolanib + Dasatinib; first compound 0.3162 µM) | relative viability (Crenolanib + Dasatinib; first compound 1 µM) | relative viability (Tivantinib + Phenformin; first compound 0.01 µM) | relative viability (Tivantinib + Phenformin; first compound 0.03162 µM) | relative viability (Tivantinib + Phenformin; first compound 0.1 µM) | relative viability (Tivantinib + Phenformin; first compound 0.3162 µM) |
| --- | --- | --- | --- | --- | --- | --- | --- | --- | --- | --- | --- | --- | --- | --- | --- | --- | --- | --- |
| HCC-827 | 1.04 | 1.01 | 0.916 | 1.03 | 0.992 | 1.01 | 1.12 | 0.957 | 0.485 | 0.338 | 0.33 | 0.398 | 0.366 | 0.396 | 0.338 | 0.466 | 0.379 | 0.166 |
| HOP-62 | 0.851 | 0.985 | 1.03 | 1.06 | 0.941 | 1.17 | 1.02 | 1.06 | 1.14 | 0.658 | 0.703 | 0.578 | 0.769 | 0.684 | 0.708 | 0.524 | 0.65 | 0.821 |
| IA-LM | 0.786 | 0.819 | 0.75 | 0.898 | 0.854 | 1.01 | 1.15 | 0.983 | 1.12 |  |  |  |  |  |  |  |  |  |
| LC-2-ad | 0.945 | 0.886 | 0.815 | 1.03 | 0.89 | 0.849 | 0.924 | 0.85 | 0.597 | 0.707 | 0.555 | 0.486 | 0.741 | 0.533 | 0.563 | 0.491 | 0.595 | 0.541 |
| LCLC-97TM1 | 0.257 | 0.287 | 0.326 | 0.287 | 0.308 | 0.993 | 0.928 | 0.911 | 0.888 | 0.877 | 0.883 | 0.857 | 0.949 | 0.67 | 0.456 | 0.496 | 0.453 | 0.388 |
| LCLC-103H | 0.852 | 0.859 | 0.888 | 0.886 | 0.942 | 0.783 | 0.68 | 0.735 | 0.663 | 0.444 | 0.454 | 0.477 | 0.457 | 0.428 | 0.327 | 0.312 | 0.378 | 0.374 |
| LK-2 | 0.637 | 0.924 | 1.1 | 0.956 | 0.997 | 1.48 |  | 1.16 | 0.929 | 0.378 | 0.253 | 0.382 | 0.231 | 0.249 | 0.44 |  | 0.314 | 0.339 |
| LOU-NH91 | 0.784 | 0.755 | 0.635 | 0.641 | 0.694 | 0.901 | 0.925 | 0.939 | 0.573 | 0.598 | 0.53 | 0.527 | 0.559 | 0.593 | 0.689 | 0.715 | 0.702 | 0.615 |
| LU99A | 0.565 | 0.503 | 0.49 | 0.526 | 0.506 | 0.692 | 0.84 | 0.737 | 0.6 | 0.492 | 0.579 | 0.669 | 0.581 | 0.522 | 0.852 | 0.805 | 0.804 | 0.942 |
| LXF-289 | 1.02 | 1.04 | 1.01 | 1.09 | 1.02 | 0.96 | 0.927 | 0.95 | 0.983 | 0.194 | 0.228 | 0.253 | 0.237 | 0.229 | 0.536 | 0.542 | 0.528 | 0.504 |
